In patent US20240066051A1 (priority 2022, published 2024):

Legend:
[1] = biological target: SARS-CoV-2 S-protein RBD E484Q (Severe acute respiratory syndrome coronavirus 2, UniProt P0DTC2, E484Q); format: binding
[2] = biological target: SARS-CoV-2 S-protein RBD T478K (Severe acute respiratory syndrome coronavirus 2, UniProt P0DTC2, T478K); format: binding
[3] = biological target: SARS-CoV-2 S-protein RBD L452R + T478K (Severe acute respiratory syndrome coronavirus 2, UniProt P0DTC2, L452R/T478K); format: binding
[4] = biological target: SARS-CoV-2 S-protein RBD N501Y (Severe acute respiratory syndrome coronavirus 2, UniProt P0DTC2, N501Y); format: binding
[5] = biological target: SARS-CoV-2 S-protein RBD L452R (Severe acute respiratory syndrome coronavirus 2, UniProt P0DTC2, L452R); format: binding
[6] = test system: SARS-CoV-2 pseudotyped viral particles (Delta variant); format: cell-based
[7] = biological target: S-protein RBD L452R+T478K mutant (Severe acute respiratory syndrome coronavirus 2, UniProt P0DTC2, L452R/T478K)
[8] = test system: S-protein RBD mutants (VOC); format: binding, SARS-CoV-2
[9] = test system: SARS-CoV-2 pseudotyped viral particles (Delta variant); format: binding

| Substance | ka [1] | kd [1] | ka [2] | kd [2] | ka [3] | kd [3] | affinity to heparin compared with the WT RBD [4] | ka [4] | kd [4] | affinity to heparin compared with the WT RBD [5] | ka [5] | kd [5] | IC50 for viral inhibition [6] [µg/mL] | inhibition of S-protein RBD mutant-heparin interaction compared with heparin [7] | inhibition of S-protein RBD mutant-heparin interaction compared with heparin [8] | inhibition of pseudotyped viral particle binding to heparin surface compared with heparin control [9] |
| --- | --- | --- | --- | --- | --- | --- | --- | --- | --- | --- | --- | --- | --- | --- | --- | --- |
| heparin | 5.2 × 10^4 1/MS | 0.011 1/S | 1.2 × 10^4 1/MS | 6.0 × 10^−3 1/S | 2.3 × 10^4 1/MS | 0.014 1/S | higher affinity | 1.7 × 10^4 1/MS | 4.2 × 10^−4 1/S | lower affinity | 161 1/MS | 1.3 × 10^−3 1/S | – | – | – | – |
| mucopolysaccharide polysulfate [MPS] | – | – | – | – | – | – | – | – | – | – | – | – | 0.28 | comparable inhibition to heparin | stronger inhibition | stronger inhibition |
| pentosan polysulfate [PPS] | – | – | – | – | – | – | – | – | – | – | – | – | 0.07 | comparable inhibition to heparin | stronger inhibition | stronger inhibition |
